# Measurements as given in publication PMC8802628, “Selective activation of PFKL suppresses the phagocytic oxidative burst” (Cell, 2021).
# Assays:
# PFKL [1] = target: T1, PFKL (Homo sapiens, UniProt P17858); test: Thermal inactivation assay of PFKL; format: biochemical; conditions: 35°C; 200 μM FBP, 200 nM NA-11
# T1 construct: made in house; host or cells: Sf9 insect cells (baculovirus, Bac-to-Bac)
# T1 sequence (P17858 1-780): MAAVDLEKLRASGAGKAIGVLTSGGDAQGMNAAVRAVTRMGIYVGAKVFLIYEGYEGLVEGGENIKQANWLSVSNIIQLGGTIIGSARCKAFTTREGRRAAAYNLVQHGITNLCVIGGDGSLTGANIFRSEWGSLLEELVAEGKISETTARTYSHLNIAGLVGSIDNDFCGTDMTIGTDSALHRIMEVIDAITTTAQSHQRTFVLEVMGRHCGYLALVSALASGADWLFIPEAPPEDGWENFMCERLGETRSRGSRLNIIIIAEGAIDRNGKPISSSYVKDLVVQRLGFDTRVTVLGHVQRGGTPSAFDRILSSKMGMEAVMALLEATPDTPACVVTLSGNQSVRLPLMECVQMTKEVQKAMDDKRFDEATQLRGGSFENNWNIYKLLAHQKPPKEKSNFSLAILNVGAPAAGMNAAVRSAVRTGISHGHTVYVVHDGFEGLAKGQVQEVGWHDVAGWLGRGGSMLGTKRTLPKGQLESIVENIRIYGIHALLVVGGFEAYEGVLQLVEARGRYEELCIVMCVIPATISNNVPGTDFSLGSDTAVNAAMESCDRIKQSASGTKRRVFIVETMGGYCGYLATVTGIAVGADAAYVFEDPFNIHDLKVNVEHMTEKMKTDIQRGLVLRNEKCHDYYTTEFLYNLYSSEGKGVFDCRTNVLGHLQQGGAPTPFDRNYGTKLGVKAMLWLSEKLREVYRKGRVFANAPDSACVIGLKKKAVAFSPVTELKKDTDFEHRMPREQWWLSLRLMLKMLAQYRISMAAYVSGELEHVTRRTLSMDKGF
# Method: Thermal inactivation assays were performed as previously described for PFKP, with modifications to account for the decreased stability of PFKL ([Sánchez-Martínez et al., 2000]). PFKL was diluted to 10 ng/mL, with a final buffer composition of 53.3 mM HEPES, 100 mM KCl, 0.167 mM DTT, 83.3 μM ammonium sulfate, 0.83% glycerol, 0.170 mM ATP, and 16.7 mM EDTA. Samples were incubated at 35°C. At the times indicated, samples were removed and residual PFK1 activity measured using the PK/LDH auxiliary enzyme assay described above with 125 μM ATP and 5 mM F6P. To determine if small molecule ligands altered PFKL stability, 200 μM FBP and 200 nM NA-11 were added.
# PMNs [2] = test: ROS detection assay (ROS-Glo) in neutrophils; format: cell-based, human
# Method: ROS were measured using the ROS-Glo bioluminescent assay (Promega) for the direct detection of H2O2. Briefly, neutrophils (2 × 10^4) were plated in white 96-well plates (Greiner) in high glucose DMEM medium. Cells were cultured with DMSO vehicle, 0.5 μM NA-11, 5 μM LDC7559, 100 μM apocynin, or 200 μM thionicotinamide for 30 min, and then stimulated with 50 nM PMA or treated with 10 μg/mL zymosan beads, pre-opsonized in 20% serum for 30 min. Luminescence, after the addition of H2O2 substrate solution of 20 min, and then ROS-Glo detection solution for 20 min, was recorded on a plate reader (Envision).
# [3] = system: human peripheral blood neutrophils; test: NETosis assay in human neutrophils (SYTOX Green, DNA area); format: cell-based; conditions: PMA; SAR analogs compared to LDC7559
# Method: Freshly purified neutrophils were plated at 6 × 10^3 cells/well in glass bottom 96-well plates (SensoPlate, Greiner Bio-One 82050-792) in the RPMI medium described above. Cells were pretreated with DMSO vehicle, 0.5 μM NA-11, 100 μM apocynin, 0.5 μM and 5 μM PALP, or 0.5 μM and 5 μM LDC7559 for 30 min, and then stimulated with 50 nM PMA, 1 μM f-MLP, 5 μg/mL cholesterol crystals, 10 μg/mL LPS, 25 μM nigericin, or 25 μM calcymicin (A23187) for 3 h (except in Figures S1A, 6A and S7C, where cells were stimulated for 4 h). Cells were fixed and permeabilized in 2.5% paraformaldehyde (PFA) and 0.02% Triton X-100 in PBS for 30 min. For quantification of NETosis, cells were stained with 150 nM SYTOX Green and imaged in a KEYENCE Fluorescence Microscope (KEYENCE, ZB-X800E) at 10 x magnification. For immunolabeling, fixed cells were blocked with 2% BSA for 1 h, and then stained with anti-CitH3 and anti-MPO antibodies at a dilution of 1/200 in 1% BSA in PBS. Images were taken at 60 x magnification using an ImageXpress Micro Confocal high-content imaging system (Molecular Devices).
# Semi-automated analysis of both phase and fluorescence images of SYTOX Green-stained neutrophils used a specialized MATLAB algorithm. Total cells were counted by scoring phase standard deviation and radial symmetry. NETosis was classified in cells by measuring the DNA area in the fluorescence image and comparing with a select internal training set for each experiment. Unstimulated cells and PMA-stimulated, […] cells served as negative controls. PMA-stimulated cells served as a positive control. NET-forming cells are presented as a percentage of total cells.
# [4] = system: human bronchial epithelial cells (HBECs); test: Epithelial barrier tissue damage assay (FITC-dextran); format: cell-based; conditions: PMA-activated neutrophils on HBECs
# Method: Human bronchial epithelial cells (HBECs) (4 × 10^4 in […] complete PneumaCult-Ex plus medium) were added to a HTS Transwell-96 permeable support plate (polyester membrane with a 0.4 μm pores) and immersed in receiver plates containing 150 μL of complete PneumaCult-Ex plus medium for 3 days. The medium on confluent monolayers was then replaced with RPMI medium containing neutrophils (4 × 10^4) in RPMI buffer that were previously treated with 5 μM NA-11, 100 μM apocynin, 5 μM NA-4, or DMSO vehicle and then activated with 100 nM PMA. The transwell plate was cultured in a new receiver plate containing 150 μL Hank’s balanced salt solution (HBSS) for 2 h. 10 μL of DMEM supplemented with 5% FBS and 2 mM L-glutamine were added to each well and the plate was incubated for additional 18 h. To measure the permeability of the epithelial barrier, FITC-dextran (200 μg/mL) and DNase-1 (22 Units/mL) were added to the apical side for 1 h. FITC-dextran in the receiver plate was measured (ex: 494 em: 521).
# PFKL [5] = target: T1, PFKL; test: Recombinant PFKL activity assay (relief of ATP inhibition); format: biochemical; conditions: 3.1 mM ATP
# Description: Recombinant N-terminal His-tagged human PFKL (NP_002617), PFKM (NP_000280), and PFKP (NM_002627.4) were generated as described ([Webb et al., 2015], [2017]). Point mutants of PFK1 were generated using the QuikChange Lightning kit (Aligent).
# His-tagged PFK1 was expressed and purified as described with slight modifications ([Webb et al., 2015], [2017]). Briefly, baculovirus was generated using the Bac-to-Bac Expression system (Invitrogen). PFK1 was expressed in 2-5 × 10^6 sf9 cells at a multiplicity of infection of two for 48 h. Cells were lysed in 20 mM HEPES, pH 7.5, 80 mM potassium phosphate, 1 mM 2-mercapentoethanol, 10% glycerol, 10 mM imidazole, and EDTA-free Protease Inhibitor Cocktail (Abcam) with a Dounce homogenizer. The soluble lysate was incubated with HisPur cobalt resin (ThermoFisher Scientific). The resin was washed with 5 bead volumes lysis buffer, 10 bead volumes lysis buffer containing 2 M NaCl, and 5 further bead volumes lysis buffer. PFK1 was eluted in lysis buffer containing 100 mM imidazole. Fractions containing protein were pooled, passed over a desalting column equilibrated in freezing buffer [20 mM HEPES pH 7.5, 1 mM DTT, 500 μM ammonium sulfate, 5% glycerol, 1 mM ATP, and 100 μM EDTA] and concentrated using an Amicon Ultracel-30K Centrifugal Filter Unit (MilliporeSigma). Protein was quantified using a Bradford Protein Assay kit (ThermoFisher Scientific), and aliquotes frozen in liquid nitrogen for storage at −80°C.
# PFK1 activity was determined using the rate of FBP production via an auxiliary enzyme assay adapted to a 96-well format ([Brüser et al., 2012]; [Webb et al., 2015]). The auxiliary enzymes aldolase, triosephosphate isomerase, and glycerol phosphate dehydrogenase were purchased from MilliporeSigma as ammonium sulfate slurries and desalted using an Amicon Ultracel-10K Centrifugal Filter Unit. For assays containing FBP, the rate of ADP production was determined using the auxiliary enzymes pyruvate kinase (PK) and lactate dehydrogenase (LDH) (MilliporeSigma) in a buffer containing 250 μM phosphoenolpyruvic acid, […] NADH, 50 mM HEPES pH 7.5, 100 mM KCl, 1 mM DTT, and effector concentrations as described in the text. The temperature was equilibrated to 25°C for 5 min before initiating the reaction 10 mM MgCl2. Absorbance at 340 nm was measured using a Varioskan LUX Multimode microplate reader (ThermoFisher). Kinetic parameters were generated by nonlinear regression analysis using Prism (GraphPad Software) and are the mean of a minimum of three measurements from two independent preparations of protein. One unit of activity was defined as the amount of enzyme that catalyzed the formation of 1 μmol of fructose 1,6-bisphosphate per min at 25°C. Assays for PFKM were performed at pH 7.0 due to the pH-dependence of ATP inhibition ([Trivedi and Danforth, 1966]).
# E. coli = test: Phagocytosis assay: E. coli C.F.U. recovered from PMNs; format: cell-based, human; conditions: neutrophils pretreated 30 min
# Method: Neutrophils (1 × 10^6) were cultured in 6-well tissue in RPMI medium containing DMSO vehicle, 0.5 μM NA-11, 0.5 μM NA-4, 100 μM Apocynin or 100 μM thionicotinamide (TN) for 30 min. E. coli grown in LB broth overnight (2 mL) were opsonized with human serum (1 mL pooled from three donors) for 1 h at room temperature. Opsonized bacteria were washed with PBS, resuspended in LB broth to an OD600of 0.1 and then added to cultured neutrophils at an MOI of 1 for 30 min. Cells were washed with medium three times and then cultured with 300 μg/mL gentamicin for 2 h to kill any extracellular bacteria. Cells were then washed again, twice with medium and once with PBS. To release phagocytosed bacteria, neutrophils were lysed in 0.05% saponin in PBS. Lysates were passed through a 25’ gauge needed several times and the number of viable phagocytosed bacteria was determined by colony counting.
# PMNs [6] = test: NADPH/NADP+ detection assay in neutrophils; format: cell-based, human; conditions: pretreatment, PMA-activated neutrophils
# Method: The ratio of NADPH/NADP^+ (or NADH/NAD^+) was calculated after measuring the individual concentrations of NADPH and NADP^+ (or NADH and NAD^+) with NADP/NADPH-Glo (or NAD/NADH-Glo) assays (Promega). […] Cells were lysed in plates by addition of 1% dodecyltrimethylammonium bromide (DTAB). To measure NADPH, half of the samples was heated at 60 °C for 30 min. The other half was treated with HCl before heating to 60°C, to measure NADP^+. All samples were neutralized before adding luciferase detection reagent, then incubated for 1 h with gentle shaking. Luminescence was recorded on a plate reader (Envision).
# GSDMD = target: T2, GSDMD (Homo sapiens, UniProt P57764); test: TR-FRET liposome cargo release (GSDMD pore formation); format: biochemical; conditions: 10 μM
# T2 sequence (P57764 1-484): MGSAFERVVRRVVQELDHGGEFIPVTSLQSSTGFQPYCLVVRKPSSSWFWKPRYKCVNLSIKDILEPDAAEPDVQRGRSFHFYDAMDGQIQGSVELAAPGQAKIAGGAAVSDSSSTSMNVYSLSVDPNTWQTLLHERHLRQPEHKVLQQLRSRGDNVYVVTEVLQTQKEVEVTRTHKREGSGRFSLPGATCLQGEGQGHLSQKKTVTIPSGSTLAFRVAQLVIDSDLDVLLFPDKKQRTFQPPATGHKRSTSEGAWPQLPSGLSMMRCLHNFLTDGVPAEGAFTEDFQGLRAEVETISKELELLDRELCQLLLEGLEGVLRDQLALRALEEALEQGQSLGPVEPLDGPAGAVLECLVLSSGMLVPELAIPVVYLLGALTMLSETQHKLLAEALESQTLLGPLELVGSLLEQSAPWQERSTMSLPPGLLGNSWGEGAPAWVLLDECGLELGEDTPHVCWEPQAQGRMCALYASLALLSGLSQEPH
# Method: GSDMD-dependent liposome cargo release was conducted by Confluence Discovery Technologies with modifications to the procedure described previously ([Aglietti et al., 2016]). Briefly, liposomes with an encapsulated cargo of europium-chelate conjugated biotin were formed from a lipid mixture of DOPC:DOPE (1:1). 0.15 mg/mL of cargo-loaded liposomes were mixed with 0.3 μM of recombinant GSDMD and incubated with 10 μM LDC7559, 10 μM disulfiram or DMSO vehicle. 0.15 μM caspase-4 and 50 nM streptavidin-Alexa Fluor 647 were added and TR-FRET was read over 1 h using a PHERAstar FSX Microplate Reader (BMG Labtech) equipped with a TR-FRET module.
compound,measurement,setting,value
"O=C(COP(=O)(O)O)[C@@H](O)[C@H](O)[C@H](O)COP(=O)(O)O [FBP, fructose 1,6-bisphosphate]",protection of PFKL from thermal inactivation,PFKL [1],protected PFKL from thermal inactivation
COc1ccccc1-c1cc2n(n1)Cc1ccc(N)cc1OC2 [NA-4],ROS production during phagocytosis of opsonized zymosan,PMNs [2]; over 2 h,did not suppress ROS production
same,inhibition of PMA-induced NETosis,[3],no inhibitor activity
same,protection of epithelial layer from neutrophil-induced oxidative damage,[4],did not
same,activation of PFKL,PFKL [5],did not activate PFKL
"COc1cc(C(C)=O)ccc1O [apocynin, reference compound]",killing of phagocytosed bacteria (bacterial colonies recovered),E. coli,less efficient killers of phagocytosed bacteria
same,PMA-induced ROS production,PMNs [2]; 50 nM PMA,prevented
same,ratio of NADPH/NADP+,PMNs [6],roughly twice that of untreated cells
same,protection of epithelial layer from neutrophil-induced oxidative damage,[4],protected the epithelial layer
CCN(CC)C(=S)SSC(=S)N(CC)CC [disulfiram],liposome permeabilization by GSDMD pore-forming fragment,GSDMD,prevented liposome permeabilization
